Article PMC11090880 (Current Research in Microbial Sciences, 2024)

Target: OROV Endo-Nter (N-terminal endonuclease domain of the OROV RNA polymerase, L protein) (Oropouche virus, UniProt A0A0B5CUJ1)
Test: FRET cleavage assay of dual-labelled DNA
Format: biochemical

COc1cc(O)c2c(c1)oc(=O)c1c3cc(O)c(O)cc3oc21 [WDL, 7‑methoxy 5,11,12-trihydroxy-coumestan]
IC50: 310 ± 8 nM
